In this assay the target is T1R1/T1R3 receptor (Felis catus, UniProt E3UMS2). The assay can be described thus: Activation of T1R1/T1R3 receptor by transmembrane compounds alone or with alanine, IMP, GMP, phenylalanine; HEK293 cells, calcium fluorescence (Example 5). It is filed as cell-based, cat. The following applies: for Max resp % of IMP +Alanine (20 mM): relative to IMP; for Thres +Alanine (20 mM) / Thres +IMP (0.2 mM): threshold concentration; for Max resp % of Ala +IMP (0.2 mM): relative to Ala; for Activity: Table 18, all transmembrane compounds tested, active / N/A (not active). The text has this: Methods: HEK293 cells that stably express T1R3 and inducibly express T1R1 were exposed to transmembrane compounds alone or in combination with one or more amino acids and/or one or more nucleotides to activate the umami receptor. Activation of the T1R1/T1R3 receptor was detected by a change in intracellular calcium levels using a calcium sensitive fluorescent dye. Cells that express T1R3 but not T1R1 were used as a control. A FLIPR® Tetra or a FlexStation® 3 was used for data capture.
In each experiment, serial dilutions of up to 10 mM of the transmembrane compound were added to the T1R1/T1R3-expressing cells.

`CCC(CC)NC(=O)c1ccc(Br)o1` [5-bromo-N-(pentan-3-yl)furan-2-carboxamide]: the “+Alanine (20 mM) Max resp % of IMP” value is reported as 126.8 % of IMP, the “+Alanine (20 mM) Max resp ΔF/F” value is 1.575 ΔF/F, the “+Alanine (20 mM) Thres” value turned out to be 1 mM and the “Max resp % of IMP +Alanine (20 mM)” value was determined as 126.8%. Moreover, the “Thres +Alanine (20 mM)” value worked out at 1 mM, the “+IMP (0.2 mM) Max resp % of Ala” value is given as 149.6 % of Ala, the “Max resp ΔF/F +IMP (0.2 mM)” value is recorded as 1.8425 ΔF/F and the “Max resp % of Ala +IMP (0.2 mM)” value came out at 149.6%. For the same compound, the “Thres +IMP (0.2 mM)” value is listed as 0.3 mM and the result was active.

Take `CCCC(C)NC(=O)/C=C/c1ccc(OC)c(OC)c1` (stereo not shown) [(E)-3-(3,4-dimethoxyphenyl)-N-(pentan-2-yl)acrylamide; (2E)-3-(3,4-dimethoxyphenyl)-N-(pentan-2-yl)prop-2-enamide]: the “+Alanine (20 mM) Max resp % of IMP” value is given as 35.2 % of IMP, the “+Alanine (20 mM) Max resp ΔF/F” value is 0.4375 ΔF/F, the “+Alanine (20 mM) Thres” value stood at 1 mM and the “+IMP (0.2 mM) Max resp % of Ala” value is listed as 86.9 % of Ala.

Regarding `CCCC(C)NC(=O)c1ccc(OC)c(C)c1` (stereo not shown) [4-methoxy-3-methyl-N-(pentan-2-yl)benzamide], the “+Alanine (20 mM) Max resp % of IMP” value is 126.0 % of IMP, the “+Alanine (20 mM) Max resp ΔF/F” value is 1.5650 ΔF/F, the “+Alanine (20 mM) Thres” value is on record as 0.050 mM and the “Max resp % of IMP +Alanine (20 mM)” value worked out at 126.0%. Further, the “Thres +Alanine (20 mM)” value was found to be 0.050 mM, the “+IMP (0.2 mM) Max resp % of Ala” value is on record as 128.9 % of Ala, the “Max resp ΔF/F +IMP (0.2 mM)” value is 1.5875 ΔF/F and the “Max resp % of Ala +IMP (0.2 mM)” value was 128.9%. Moreover, the “Thres +IMP (0.2 mM)” value was found to be 0.025 mM and the result was active.

Regarding `CCCC(C)NC(=O)/C=C/c1ccc(OC)c(OC)c1` (stereo not shown) [(E)-3-(3,4-dimethoxyphenyl)-N-(pentan-2-yl)acrylamide], the “Max resp % of IMP +Alanine (20 mM)” value was found to be 35.2%, the “Thres +Alanine (20 mM)” value is recorded as 1 mM, the “Max resp ΔF/F +IMP (0.2 mM)” value is 1.07 ΔF/F and the “Max resp % of Ala +IMP (0.2 mM)” value is given as 86.9%. The “Thres +IMP (0.2 mM)” value was found to be 0.55 mM and the outcome was active.

As for `CSc1ccc(-c2nnn(Cc3ccccn3)n2)cc1` [2-((5-(4-(methylthio)phenyl)-2H-tetrazol-2-yl)methyl)pyridine], the “+IMP (0.2 mM) Max resp % of Ala” value is on record as 80.7 % of Ala, the “Max resp ΔF/F +IMP (0.2 mM)” value is 0.678 ΔF/F, the “Max resp % of Ala +IMP (0.2 mM)” value came to 80.7% and the “Thres +IMP (0.2 mM)” value is 0.1575 mM. Besides, the outcome was active.

For `CCC(CC)NC(=O)c1ccc(C)c(C)c1` [3,4-dimethyl-N-(pentan-3-yl)benzamide], the “Max resp % of IMP +Alanine (20 mM)” value amounted to 97.8%, the “Thres +Alanine (20 mM)” value worked out at 3 mM, the “Max resp ΔF/F +IMP (0.2 mM)” value is recorded as 1.5475 ΔF/F and the “Max resp % of Ala +IMP (0.2 mM)” value is on record as 125.7%. Further, the “Thres +IMP (0.2 mM)” value is 0.525 mM and the outcome was active.

Turning to `O=C(Nc1ccccc1Br)N[C@@H]1c2ccccc2C[C@@H]1O` (stereo in doubt) [1-(2-bromophenyl)-3-((1R,2S)-2-hydroxy-2,3-dihydro-1H-inden-1-yl)urea], the “+Alanine (20 mM) Max resp % of IMP” value is 33.0 % of IMP, the “+Alanine (20 mM) Max resp ΔF/F” value is 0.3 ΔF/F, the “+Alanine (20 mM) Thres” value is listed as 3 mM and the “Max resp % of IMP +Alanine (20 mM)” value came to 33.0%. The “Thres +Alanine (20 mM)” value came to 3 mM, the “+IMP (0.2 mM) Max resp % of Ala” value is on record as 44.9 % of Ala, the “Max resp ΔF/F +IMP (0.2 mM)” value is recorded as 0.378 ΔF/F and the “Max resp % of Ala +IMP (0.2 mM)” value was 44.9%. For the same compound, the “Thres +IMP (0.2 mM)” value came to 3 mM and the result was active.

As to `CC1CCCC(NC(=O)c2ccc3c(c2)OCO3)C1C` (stereo not shown) [N-(2,3-dimethylcyclohexyl) benzo[d][1,3]dioxole-5-carboxamide], the “+Alanine (20 mM) Max resp % of IMP” value is given as 18.1 % of IMP, the “+Alanine (20 mM) Max resp ΔF/F” value is recorded as 0.225 ΔF/F, the “+Alanine (20 mM) Thres” value is recorded as 3 mM and the “Max resp % of IMP +Alanine (20 mM)” value is 18.1%. Moreover, the “Thres +Alanine (20 mM)” value was found to be 3 mM, the “+IMP (0.2 mM) Max resp % of Ala” value was 95.4 % of Ala, the “Max resp ΔF/F +IMP (0.2 mM)” value is recorded as 1.175 ΔF/F and the “Max resp % of Ala +IMP (0.2 mM)” value is on record as 95.4%. Moreover, the “Thres +IMP (0.2 mM)” value is 0.275 mM and the result was active.

On to `O=C(NCCc1ccccc1)C(=O)NCc1cccnc1` [N1-phenethyl-N2-(pyridin-3-ylmethyl)oxalamide], for which the “Max resp % of IMP +Alanine (20 mM)” value was found to be 30.2%, the “Thres +Alanine (20 mM)” value came out at 1 mM, the “Max resp ΔF/F +IMP (0.2 mM)” value was 0.7625 ΔF/F and the “Max resp % of Ala +IMP (0.2 mM)” value turned out to be 61.9%. For the same compound, the “Thres +IMP (0.2 mM)” value was 0.1 mM and the outcome was active.

For `CCOC(=O)C(NC(=O)c1ccc2c(c1)OCO2)C(C)C` (stereo not shown) [ethyl 2-(benzo[d][1,3]dioxole-5-carboxamido)-3-methylbutanoate], the “+Alanine (20 mM) Max resp % of IMP” value is given as 25.6 % of IMP, the “+Alanine (20 mM) Max resp ΔF/F” value was 0.3175 ΔF/F, the “+Alanine (20 mM) Thres” value was 10 mM and the “Max resp % of IMP +Alanine (20 mM)” value stood at 25.6%. Also, the “Thres +Alanine (20 mM)” value was determined as 10 mM, the “+IMP (0.2 mM) Max resp % of Ala” value is listed as 52.8 % of Ala, the “Max resp ΔF/F +IMP (0.2 mM)” value is 0.65 ΔF/F and the “Max resp % of Ala +IMP (0.2 mM)” value is given as 52.8%. Also, the “Thres +IMP (0.2 mM)” value is reported as 1 mM and the outcome was active.

As to `CCC(CC)NC(=O)/C=C/c1ccc(OC)cc1` [(E)-3-(4-methoxyphenyl)-N-(pentan-3-yl)acrylamide], the “+Alanine (20 mM) Max resp % of IMP” value is on record as 64.1 % of IMP, the “+Alanine (20 mM) Max resp ΔF/F” value was 0.7 ΔF/F, the “+Alanine (20 mM) Thres” value worked out at 0.148 mM and the “Max resp % of IMP +Alanine (20 mM)” value is given as 64.1%. Further, the “Thres +Alanine (20 mM)” value was 0.148 mM, the “+IMP (0.2 mM) Max resp % of Ala” value is on record as 171.7 % of Ala, the “Max resp ΔF/F +IMP (0.2 mM)” value is reported as 1.443 ΔF/F and the “Max resp % of Ala +IMP (0.2 mM)” value is reported as 171.7%. The “Thres +IMP (0.2 mM)” value is 0.0375 mM and the outcome was active.

As for `COc1cc(C(=O)NC(C(N)=O)c2ccccc2)cc(Cl)c1OC` (stereo not shown) [N-(2-amino-2-oxo-1-phenylethyl)-3-chloro-4,5-dimethoxybenzamide], the “+IMP (0.2 mM) Max resp % of Ala” value is given as 49.4 % of Ala, the “Max resp ΔF/F +IMP (0.2 mM)” value is reported as 0.415 ΔF/F, the “Max resp % of Ala +IMP (0.2 mM)” value stood at 49.4% and the “Thres +IMP (0.2 mM)” value stood at 0.17 mM. For the same compound, the outcome was active and the “activation of T1R1/T1R3 by the transmembrane compound alone (in words)” value is “failed to activate”.

Consider `CCCC(CCC)C(=O)Nc1ccc2c(c1)OCO2` [N-(benzo[d][1,3]dioxol-5-yl)-2-propylpentanamide], for which the “+IMP (0.2 mM) Max resp % of Ala” value is 108.0 % of Ala, the “Max resp ΔF/F +IMP (0.2 mM)” value is recorded as 0.908 ΔF/F, the “Max resp % of Ala +IMP (0.2 mM)” value is listed as 108.0% and the “Thres +IMP (0.2 mM)” value is 0.0675 mM. Also, the outcome was active and the “activation of T1R1/T1R3 by the transmembrane compound alone (in words)” value was “function as an agonist”.

As to `O=C(NCCc1ccccc1)C(=O)NCc1cccnc1` [N1-phenethyl-N2-(pyridin-3-ylmethyl)oxalamide; N-(2-phenylethyl)-N′-(pyridin-3-ylmethyl)ethanediamide], the “+Alanine (20 mM) Max resp % of IMP” value is on record as 30.2 % of IMP, the “+Alanine (20 mM) Max resp ΔF/F” value is reported as 0.3750 ΔF/F, the “+Alanine (20 mM) Thres” value is listed as 1 mM and the “+IMP (0.2 mM) Max resp % of Ala” value is 61.9 % of Ala.

On to `COC(=O)C(NC(=O)/C=C/c1cccs1)C(C)C` (stereo not shown) [(E)-methyl 3-methyl-2-(3-(thiophen-2-yl)acrylamido)butanoate], for which the “+Alanine (20 mM) Max resp % of IMP” value was 9.5 % of IMP, the “+Alanine (20 mM) Max resp ΔF/F” value is 0.1175 ΔF/F, the “+Alanine (20 mM) Thres” value came out at 10 mM and the “Max resp % of IMP +Alanine (20 mM)” value came to 9.5%. The “Thres +Alanine (20 mM)” value worked out at 10 mM, the “+IMP (0.2 mM) Max resp % of Ala” value is reported as 59.9 % of Ala, the “Max resp ΔF/F +IMP (0.2 mM)” value is listed as 0.7375 ΔF/F and the “Max resp % of Ala +IMP (0.2 mM)” value is given as 59.9%. Moreover, the “Thres +IMP (0.2 mM)” value turned out to be 1 mM and the result was active.

Turning to `CCC(CC)NC(=O)c1ccc2c(c1)OCCO2` [N-(pentan-3-yl)-2,3-dihydrobenzo[b][1,4]dioxine-6-carboxamide], the “+Alanine (20 mM) Max resp % of IMP” value is 25.2 % of IMP, the “+Alanine (20 mM) Max resp ΔF/F” value is reported as 0.3125 ΔF/F, the “+Alanine (20 mM) Thres” value is on record as 0.3 mM and the “Max resp % of IMP +Alanine (20 mM)” value is on record as 25.2%. Further, the “Thres +Alanine (20 mM)” value is 0.3 mM, the “+IMP (0.2 mM) Max resp % of Ala” value is given as 70.9 % of Ala, the “Max resp ΔF/F +IMP (0.2 mM)” value is 0.8725 ΔF/F and the “Max resp % of Ala +IMP (0.2 mM)” value was found to be 70.9%. Also, the “Thres +IMP (0.2 mM)” value was determined as 0.075 mM and the result was active.

Regarding `COc1ccc(C(=O)NC(C)c2ccccc2)cc1C` (stereo not shown) [4-methoxy-3-methyl-N-(1-phenylethyl)benzamide], the “+Alanine (20 mM) Max resp % of IMP” value is given as 41.0 % of IMP, the “+Alanine (20 mM) Max resp ΔF/F” value is 0.51 ΔF/F, the “+Alanine (20 mM) Thres” value is recorded as 3 mM and the “Max resp % of IMP +Alanine (20 mM)” value was 41.0%. Moreover, the “Thres +Alanine (20 mM)” value was 3 mM, the “+IMP (0.2 mM) Max resp % of Ala” value is 95.6 % of Ala, the “Max resp ΔF/F +IMP (0.2 mM)” value is recorded as 1.1775 ΔF/F and the “Max resp % of Ala +IMP (0.2 mM)” value is reported as 95.6%. Besides, the “Thres +IMP (0.2 mM)” value is reported as 0.35 mM and the outcome was active.
